The results in this text go back to patent US12122763B2, “Substituted piperidines for androgen receptor degradation” (UBIX THERAPEUTICS, INC., priority 2020, dated 2024).

The test has as its target T1, Androgen Receptor (AR) protein (Homo sapiens, UniProt P10275, T878A).
T1 construct: endogenous in cells; host or cells: LNCaP
Nature of the test: Androgen Receptor (AR) protein degradation assay in LNCaP cells, western blotting. In kind it is cell-based. The note with it: 20 h; for inhibition at 0.01 µM: 0.01 μM compound; for inhibition at 0.1 µM: 0.1 μM compound; for inhibition at 1 µM: 1 μM compound. Summed up: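 AR protein level was detected by western blot (ECL) against GAPDH or β-actin controls, with 8 μg lysate protein loaded per lane after BCA quantification. Lysates came from LNCaP cells exposed to test compound for 20 h, following 3 days of growth in RPMI/10% FBS.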
(In general: Immunoblotting shows a protein as a band on a membrane.)

By inhibition is commonly meant the change of the read-out against control, counted positive when it falls.

Molecules are shown by their SMILES.

T1 sequence (P10275 whole entry T878A): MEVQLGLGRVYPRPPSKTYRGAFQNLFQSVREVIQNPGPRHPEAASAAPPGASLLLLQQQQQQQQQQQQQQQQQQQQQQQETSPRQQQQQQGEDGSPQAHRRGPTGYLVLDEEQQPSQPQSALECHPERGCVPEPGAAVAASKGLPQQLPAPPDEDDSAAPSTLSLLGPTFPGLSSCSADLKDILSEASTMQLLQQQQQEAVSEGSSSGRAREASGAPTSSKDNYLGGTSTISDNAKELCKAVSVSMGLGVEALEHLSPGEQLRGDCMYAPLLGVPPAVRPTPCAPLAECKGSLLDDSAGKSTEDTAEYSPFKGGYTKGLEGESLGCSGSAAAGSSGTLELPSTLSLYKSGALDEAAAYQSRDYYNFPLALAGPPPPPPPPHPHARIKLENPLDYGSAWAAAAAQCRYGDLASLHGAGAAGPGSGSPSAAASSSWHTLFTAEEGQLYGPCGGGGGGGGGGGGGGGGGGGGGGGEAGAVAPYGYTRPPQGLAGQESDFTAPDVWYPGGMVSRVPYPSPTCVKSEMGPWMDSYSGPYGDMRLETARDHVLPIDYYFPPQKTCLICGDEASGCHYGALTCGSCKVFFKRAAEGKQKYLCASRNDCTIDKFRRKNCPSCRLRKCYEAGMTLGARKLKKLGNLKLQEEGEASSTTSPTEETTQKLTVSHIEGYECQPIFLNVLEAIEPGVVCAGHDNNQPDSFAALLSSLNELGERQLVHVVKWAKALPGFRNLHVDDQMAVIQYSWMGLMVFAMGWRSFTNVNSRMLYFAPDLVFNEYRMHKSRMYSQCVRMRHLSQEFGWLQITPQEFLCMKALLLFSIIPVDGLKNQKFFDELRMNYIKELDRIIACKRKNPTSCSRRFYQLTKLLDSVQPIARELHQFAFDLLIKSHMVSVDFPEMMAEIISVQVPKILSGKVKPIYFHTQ
T1 sequence (Q96SW2 whole entry partner): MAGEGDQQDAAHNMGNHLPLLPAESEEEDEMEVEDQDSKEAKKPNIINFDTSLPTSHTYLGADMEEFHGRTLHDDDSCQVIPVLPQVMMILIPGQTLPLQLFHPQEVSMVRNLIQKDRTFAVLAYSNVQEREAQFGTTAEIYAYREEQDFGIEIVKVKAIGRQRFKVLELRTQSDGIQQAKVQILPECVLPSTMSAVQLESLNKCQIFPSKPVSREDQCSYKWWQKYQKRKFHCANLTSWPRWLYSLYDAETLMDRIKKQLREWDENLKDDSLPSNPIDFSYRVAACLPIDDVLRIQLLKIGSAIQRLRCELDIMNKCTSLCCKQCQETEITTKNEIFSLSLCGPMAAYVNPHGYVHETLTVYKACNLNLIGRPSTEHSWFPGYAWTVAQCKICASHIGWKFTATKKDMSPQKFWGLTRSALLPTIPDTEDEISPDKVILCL

Turning to `N#Cc1ccc(N2CCC(CC(=O)Nc3ccc(N4CCC(CN5CC6(CCN(c7ccc8c(c7)C(=O)N(C7CCC(=O)NC7=O)C8=O)CC6)C5)CC4)cn3)C2)cc1C(F)(F)F` (stereo not drawn) [Example 56, 2-(1-(4-cyano-3-(trifluoromethyl)phenyl)pyrrolidin-3-yl)-N-(5-(4-((7-(2-(2,6-dioxopiperidin-3-yl)-1,3-dioxoisoindolin-5-yl)-2,7-diazaspiro[3.5]nonan-2-yl)methyl)piperidin-1-yl)pyridin-2-yl)acetamide], the inhibition at 0.01 µM is -8%, the inhibition at 0.1 µM is 87% and the inhibition at 1 µM amounted to 95%.
For `N#Cc1ccc(N2CCC(C(=O)Nc3ccc(N4CCC(CN5CC6(CCN(c7ccc8nnn(C9CCC(=O)NC9=O)c(=O)c8c7)CC6)C5)CC4)cn3)CC2)cc1C(F)(F)F` (stereo not drawn) [Example 53, 1-(4-cyano-3-(trifluoromethyl)phenyl)-N-(5-(4-((7-(3-(2,6-dioxopiperidin-3-yl)-4-oxo-3,4-dihydrobenzo[d][1,2,3]triazin-6-yl)-2,7-diazaspiro[3.5]nonan-2-yl)methyl)piperidin-1-yl)pyridin-2-yl)piperidine-4-carboxamide], in that order: 27%, 89% and 93%.
As to `C[C@@H]1CN(CC2CCN(c3ccc(C(=O)NC4CCC(=O)NC4=O)nc3)CC2)CCN1CC1CCN(c2ccc(NC(=O)C3CCN(c4ccc(C#N)c(C(F)(F)F)c4)CC3)nc2)CC1` (stereo partly drawn) [Example 108, 5-(4-(((R)-4-((1-(6-(1-(4-cyano-3-(trifluoromethyl)phenyl)piperidine-4-carboxamido)pyridin-3-yl)piperidin-4-yl)methyl)-3-methylpiperazin-1-yl)methyl)piperidin-1-yl)-N-(2,6-dioxopiperidin-3-yl)picolinamide], the inhibition at 0.01 µM came out at 51%, the inhibition at 0.1 µM amounted to 85% and the inhibition at 1 µM is 89%.
For `CC1(CN2CCN(CC3CCN(c4ccc5c(c4)C(=O)N(C4CCC(=O)NC4=O)C5=O)CC3)CC2)CN(c2ccc(NC(=O)C3CCN(c4ccc(C#N)c(C(F)(F)F)c4)CC3)nc2)C1` (stereo not drawn) [Example 179, 1-(4-cyano-3-(trifluoromethyl)phenyl)-N-(5-(3-((4-((1-(2-(2,6-dioxopiperidin-3-yl)-1,3-dioxoisoindolin-5-yl)piperidin-4-yl)methyl)piperazin-1-yl)methyl)-3-methylazetidin-1-yl)pyridin-2-yl)piperidine-4-carboxamide], in that order: 73%, 98% and 97%.
As to `N#Cc1ccc(N2CCC(C(=O)Nc3ccc(OCC4CCN(CC5CCN(c6ccc7c(c6)C(=O)N(C6CCC(=O)NC6=O)C7=O)CC5)CC4)cn3)CC2)cc1C(F)(F)F` (stereo not drawn) [Example 174, 1-(4-cyano-3-(trifluoromethyl)phenyl)-N-(5-((1-((1-(2-(2,6-dioxopiperidin-3-yl)-1,3-dioxoisoindolin-5-yl)piperidin-4-yl)methyl)piperidin-4-yl)methoxy)pyridin-2-yl)piperidine-4-carboxamide], the inhibition at 0.01 µM was 73%, the inhibition at 0.1 µM is 91% and the inhibition at 1 µM was 95%.
On to `N#Cc1ccc(N2CCC(C(=O)Nc3cnc(N4CCC(CCN5CCN(c6ccc7c(c6)C(=O)N(C6CCC(=O)NC6=O)C7=O)CC5)CC4)cn3)CC2)cc1C(F)(F)F` (stereo not drawn) [Example 156, 1-(4-cyano-3-(trifluoromethyl)phenyl)-N-(5-(4-(2-(4-(2-(2,6-dioxopiperidin-3-yl)-1,3-dioxoisoindolin-5-yl)piperazin-1-yl)ethyl)piperidin-1-yl)pyrazin-2-yl)piperidine-4-carboxamide], for which the inhibition at 0.01 µM stood at 35%, the inhibition at 0.1 µM worked out at 76% and the inhibition at 1 µM was determined as 96%.
